Patent US7605172B2, “Thiazolo-naphthyl acids” (Wyeth, priority 2004, dated 2009)

Key:
[1] = biological target: human PAI-1 (Homo sapiens, UniProt P05121); test: Assay for determining IC50 of inhibition of PAI-1 (Antibody Assay); type: binding; settings: active PAI-1 bound to tPA-coated plate
Experimental: This assay is based upon the non-SDS dissociable interaction between tPA and active PAI-1. Assay plates are initially coated with human tPA (10 μg/ml). Test compounds of the present invention are dissolved in DMSO at 10 mM, then diluted with physiologic buffer (pH 7.5) to a final concentration of 1-50 μM. Test compounds are incubated with human PAI-1 (50 ng/ml) for 15 minutes at room temperature. The tPA-coated plate is washed with a solution of 0.05% Tween 20 and 0.1% BSA, then the plate is blocked with a solution of 3% BSA. An aliquot of the thiazolo-naphthyl acid/PAI-1 solution is then added to the tPA-coated plate, incubated at room temperature for 1 hour, and washed. Active PAI-1 bound to the plate is assessed by adding an aliquot of a 1:1000 dilution of the 33B8 monoclonal antibody against human PAI-1, and incubating the plate at room temperature for 1 hour (Molecular Innovations, Royal Oak, Mich.). The plate is again washed, and a solution of goat anti-mouse IgG-alkaline phosphatase conjugate is added at a 1:50,000 dilution in goat serum. The plate is incubated 30 minutes at room temperature, washed, and a solution of alkaline phosphatase substrate is added. The plate is incubated 45 minutes at room temperature, and color development is determined at OD405 nm. The quantitation of active PAI-1 bound to tPA at varying concentrations of the test compound is used to determine the IC50. Results are analyzed using a logarithmic best-fit equation. The assay sensitivity is 5 ng/ml of human PAI-1 as determined from a standard curve ranging from 0-100 ng/ml.

[2] = biological target: T1, recombinant human plasminogen activator inhibitor-1 (PAI-1) (Homo sapiens, UniProt P05121); test: Primary screen for the PAI-1 inhibition; type: biochemical; settings: for inhibition at 10 µM: 10 μM test compound; for inhibition at 25 µM: 25 μM test compound
T1 construct: purchased Molecular Innovations, Royal Oak, Mich
T1 sequence (P05121 24-402): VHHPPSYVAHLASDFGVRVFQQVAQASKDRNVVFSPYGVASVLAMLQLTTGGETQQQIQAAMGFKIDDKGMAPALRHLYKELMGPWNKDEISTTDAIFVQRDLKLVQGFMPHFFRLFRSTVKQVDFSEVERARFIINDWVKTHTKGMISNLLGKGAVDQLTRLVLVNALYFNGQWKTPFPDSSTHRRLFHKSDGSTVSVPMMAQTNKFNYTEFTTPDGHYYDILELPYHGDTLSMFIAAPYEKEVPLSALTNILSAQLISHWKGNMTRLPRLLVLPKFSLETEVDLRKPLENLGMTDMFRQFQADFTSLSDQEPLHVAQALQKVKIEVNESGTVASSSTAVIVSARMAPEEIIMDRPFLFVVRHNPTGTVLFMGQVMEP
Experimental: Test compounds are dissolved in DMSO at a final concentration of 10 mM, then diluted 100× in physiologic buffer. The inhibitory assay is initiated by the addition of the test compound (1-100 μM final concentration, maximun DMSO concentration of 0.2%) in a pH 6.6 buffer containing 140 nM recombinant human plasminogen activator inhibitor-1 (PAI-1; Molecular Innovations, Royal Oak, Mich.). Following a 1 hour incubation at room temperature, 70 nM of recombinant human tissue plasminogen activator (tPA) is added, and the combination of the test compound, PAI-1 and tPA is incubated for an additional 30 minutes. Following the second incubation, Spectrozyme-tPA (American Diagnostica, Greenwich, Conn.), a chromogenic substrate for tPA, is added and absorbance read at 405 nm at 0 and 60 minutes. Relative PAI-1 inhibition is equal to the residual tPA activity in the presence of the test compound and PAI-1. Control treatments include the complete inhibition of tPA by PAI-1 at the molar ratio employed (2:1), and the absence of any effect of the test compound on tPA alone.

Chain of human PAI-1 (P05121 24-402): as above

Row | melting point [°C] | IC50 [1] [µM] | inhibition at 10 µM [2] [%] | inhibition at 25 µM [2] [%] | Structure (SMILES)
1 | 268 to 270 |  |  |  | O=C(O)c1ccc(COc2ccc3cc(-c4csc(-c5ccccc5)n4)ccc3c2Br)cc1 (hydrate or solvate) [Example 8, 4-({[1-bromo-6-(2-phenyl-1,3-thiazol-4-yl)-2-naphthyl]oxy}methyl)benzoic acid]
2 | 205 to 207 |  | 21 | 43 | O=C(O)COc1ccc2cc(-c3csc(Cc4c(Cl)cccc4Cl)n3)ccc2c1 [Example 6, ({6-[2-(2,6-dichlorobenzyl)-1,3-thiazol-4-yl]-2-naphthyl}oxy)acetic acid]
3 | 221 to 223 |  | 20 | 71 | O=C(O)C(Cc1ccccc1)Oc1ccc2cc(-c3nc(-c4ccccc4)sc3Br)ccc2c1Br (stereo not drawn) [Example 7, 2-{[1-bromo-6-(5-bromo-2-phenyl-1,3-thiazol-4-yl)-2-naphthyl]oxy}-3-phenylpropanoic acid]
4 |  |  | 38 | 49 | O=C(O)c1ccc(COc2ccc3cc(-c4csc(-c5ccccc5)n4)ccc3c2Br)cc1 [Example 8, 4-({[1-bromo-6-(2-phenyl-1,3-thiazol-4-yl)-2-naphthyl]oxy}methyl)benzoic acid]

The remaining lines, values behind:

Row | Structure (SMILES) | melting point [°C] | IC50 [1] [µM] | inhibition at 10 µM [2] [%] | inhibition at 25 µM [2] [%]
5 | O=C(O)C(Cc1ccccc1)Oc1ccc2cc(-c3csc(-c4ccccc4)n3)ccc2c1 (stereo not drawn) [Example 1, 3-phenyl-2-{[6-(2-phenyl-1,3-thiazol-4-yl)-2-naphthyl]oxy}propanoic acid] | 154 to 160 | 26.2 | 4 | 62
6 | c1ccc(-c2nc(-c3ccc4cc(OCc5nnn[nH]5)ccc4c3)cs2)cc1 [Example 2, 5-({[6-(2-phenyl-1,3-thiazol-4-yl)-2-naphthyl]oxy}methyl)-1H-tetraazole] | 226 to 228 | 34.3 | 6 | 59
7 | O=C(O)C(Cc1ccccc1)Oc1ccc2cc(-c3csc(-c4ccccc4)n3)ccc2c1Br (stereo not drawn) [Example 3, 2-{[1-bromo-6-(2-phenyl-1,3-thiazol-4-yl)-2-naphthyl]oxy}-3-phenylpropanoic acid] | 220 to 224 |  | 1 | 49
8 | O=C(O)COc1ccc2cc(-c3csc(-c4ccccc4)n3)ccc2c1Br [Example 4, {[1-bromo-6-(2-phenyl-1,3-thiazol-4-yl)-2-naphthyl]oxy}acetic acid] | 222 to 230 | 20.3 | 40 | 68
9 | Brc1c(OCc2nnn[nH]2)ccc2cc(-c3csc(-c4ccccc4)n3)ccc12 [Example 5, 5-({[1-bromo-6-(2-phenyl-1,3-thiazol-4-yl)-2-naphthyl]oxy}methyl)-1H-tetraazole] | 227 to 231 |  | 42 | 64
